# Molecular target: recombinant human CYP3A4 enzyme (Homo sapiens, UniProt P08684)
# Test: CYP3A4-Glo Screening System luminescent CYP3A4 inhibition assay
# Settings: for CYP3A4 inhibition activity (in words): compared with pterostilbene and ellipticine
# Sequence of recombinant human CYP3A4 enzyme (P08684 whole entry): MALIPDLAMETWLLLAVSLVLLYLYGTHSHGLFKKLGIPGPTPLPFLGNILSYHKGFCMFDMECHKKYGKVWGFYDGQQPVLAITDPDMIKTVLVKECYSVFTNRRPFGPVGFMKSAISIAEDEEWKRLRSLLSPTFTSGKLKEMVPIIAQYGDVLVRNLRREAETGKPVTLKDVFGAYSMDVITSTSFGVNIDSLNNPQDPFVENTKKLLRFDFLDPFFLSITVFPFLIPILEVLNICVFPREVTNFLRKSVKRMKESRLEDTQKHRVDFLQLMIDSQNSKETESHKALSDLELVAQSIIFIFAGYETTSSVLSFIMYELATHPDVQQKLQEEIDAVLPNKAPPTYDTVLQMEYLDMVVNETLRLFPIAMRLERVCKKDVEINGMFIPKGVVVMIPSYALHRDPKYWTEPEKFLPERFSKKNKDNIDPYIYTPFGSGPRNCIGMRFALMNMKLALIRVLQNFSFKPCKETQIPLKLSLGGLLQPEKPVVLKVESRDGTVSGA
SMILES,IC50,CYP3A4 inhibition activity (in words)
O=C(/C=C/c1ccc(O)cc1)CC(=O)/C=C/c1ccc(O)cc1 [Bisdemethoxycurcumin],14.8 ± 2.09 µM,weaker
CC(C)=CCOc1c2ccoc2cc2oc(=O)ccc12 [Isoimperatorin],18.2 ± 1.72 µM,weaker
Cc1c2ccncc2c(C)c2c1[nH]c1ccccc12 [Ellipticine],0.052 ± 0.003 µM,
COc1cc(/C=C/c2ccc(O)cc2)cc(OC)c1 [Pterostilbene],1.12 ± 0.056 µM,
